Earlier results on three compounds are cited in patent US20170247366A1, “SUBSTITUTED 4-ALKOXYPICOLINAMIDE ANALOGS AS MGLUR5 NEGATIVE ALLOSTERIC MODULATORS AND METHODS OF MAKING AND USING THE SAME” (VANDERBILT UNIVERSITY, priority 2014, published 2017).

The structures appear in SMILES notation.

Data set [1] concerns marble burying in mice. The settings on record: cited from earlier work.
Data set [2] concerns N-methyl-D-aspartate (NMDA) receptor. The settings on record: at higher concentrations; cited from earlier work.
The target of data set [3] is mGluR4 (Homo sapiens, UniProt Q14833). The conditions noted are these: cited from earlier work.
The target in data set [4] is T1, cytochrome P450 1A2 (Homo sapiens, UniProt P05177).
T1 sequence (P05177 1-516): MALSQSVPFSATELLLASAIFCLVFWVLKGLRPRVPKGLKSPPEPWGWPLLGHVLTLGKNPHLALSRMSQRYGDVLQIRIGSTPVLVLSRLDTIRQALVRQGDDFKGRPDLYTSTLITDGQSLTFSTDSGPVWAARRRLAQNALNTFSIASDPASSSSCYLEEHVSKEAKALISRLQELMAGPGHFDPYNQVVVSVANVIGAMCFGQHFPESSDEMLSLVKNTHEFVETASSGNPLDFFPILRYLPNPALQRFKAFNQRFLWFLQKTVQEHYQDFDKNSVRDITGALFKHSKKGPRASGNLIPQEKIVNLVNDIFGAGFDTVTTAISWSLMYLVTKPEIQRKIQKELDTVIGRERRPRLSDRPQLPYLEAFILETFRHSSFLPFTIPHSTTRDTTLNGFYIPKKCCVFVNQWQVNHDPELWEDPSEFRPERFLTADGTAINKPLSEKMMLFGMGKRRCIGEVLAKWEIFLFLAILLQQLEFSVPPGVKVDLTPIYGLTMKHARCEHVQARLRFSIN
The conditions noted are these: cited from earlier work.

For data set [5] the following is noted: intravenous administration to rhesus monkeys; cited from earlier work.

Sequence of mGluR4 (Q14833 33-912): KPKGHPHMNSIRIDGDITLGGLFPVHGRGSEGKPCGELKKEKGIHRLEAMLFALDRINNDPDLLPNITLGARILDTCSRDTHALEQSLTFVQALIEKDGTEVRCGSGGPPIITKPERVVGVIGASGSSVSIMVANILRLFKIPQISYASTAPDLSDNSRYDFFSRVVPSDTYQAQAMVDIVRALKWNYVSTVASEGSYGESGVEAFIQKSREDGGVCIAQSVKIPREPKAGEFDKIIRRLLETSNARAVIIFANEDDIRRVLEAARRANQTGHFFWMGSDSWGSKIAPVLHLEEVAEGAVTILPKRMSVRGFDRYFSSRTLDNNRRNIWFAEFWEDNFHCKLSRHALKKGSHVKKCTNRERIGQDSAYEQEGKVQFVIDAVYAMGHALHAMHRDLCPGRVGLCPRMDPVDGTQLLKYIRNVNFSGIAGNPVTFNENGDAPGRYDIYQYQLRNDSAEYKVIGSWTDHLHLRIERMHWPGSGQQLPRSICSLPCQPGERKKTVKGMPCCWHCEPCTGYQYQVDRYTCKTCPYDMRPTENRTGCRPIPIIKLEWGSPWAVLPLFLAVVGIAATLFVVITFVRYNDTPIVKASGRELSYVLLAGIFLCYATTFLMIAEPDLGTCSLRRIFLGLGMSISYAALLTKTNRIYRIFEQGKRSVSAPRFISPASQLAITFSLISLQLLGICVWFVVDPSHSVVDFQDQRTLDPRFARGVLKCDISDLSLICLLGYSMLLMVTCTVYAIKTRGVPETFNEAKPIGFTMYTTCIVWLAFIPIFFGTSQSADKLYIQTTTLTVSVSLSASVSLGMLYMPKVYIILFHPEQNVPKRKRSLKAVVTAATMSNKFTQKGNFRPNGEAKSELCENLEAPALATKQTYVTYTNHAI

As for `Cc1cccc(C#Cc2ccccc2)n1` [MPEP, 2-methyl-6-(phenylethynyl) pyridine], the “Efficacy in marble burying model” value in data set [1] was “effective”. For the same compound, the “NMDA receptor activity inhibition” value in data set [2] was “directly inhibit”. Also, the “Activity at mGluR4” value in data set [3] was “positive allosteric modulator”.
As to `Cc1nc(C#Cc2cccnc2)cs1` [MTEP, 3-[(2-methyl-1,3-thiazol-4-yl)ethynyl]pyridine], in data set [4], the “Inhibition of cytochrome P450 1A2” value is listed as “potent inhibitor”. The Clearance result in data set [5] is reported as “efficiently cleared”.
As for `CN1CC(=O)N=C1NC(=O)Nc1cccc(Cl)c1` [fenobam, 1-(3-chlorophenyl)-3-(1-methyl-4-oxo-4,5-dihydro-1H-imidazol-2-yl)urea], in data set [1], the “Efficacy in marble burying model” value is listed as “effective”.
